# Source: patent publication US10857196B2, “Bicyclic peptide ligands and uses thereof” (BicycleTx Limited, priority 2017, dated 2020)
# Square brackets hold non-standard residues; d marks the D form. Ends that are not written are not given here. 1Nal = N[C@@H](Cc1cccc2ccccc12)C(=O)O; Tle = CC(C)(C)[C@H](N)C(=O)O; βAla = NCCC(=O)O; Sar = CNCC(=O)O
# Experiments:
# CAIX [1] = molecular target: T1, CAIX (Homo sapiens, UniProt Q16790); experiment: CAIX competition binding assay (competition fluorescence polarization); settings: fluorescent ligand A-(CAECWIDGWVPC)-A-Sar6-K(Fl)
# Method: CAIX Competition Binding Assay Affinity of the peptides of the invention for human CAIX (Ki) was determined using a competition fluorescence polarization assay analogous to that described in Dubois et al. (2011) Radiotherapy and Oncology 99(3), 424-43 using A-(CAECWIDGWVPC)-A-Sar6-K(Fl) (SEQ ID NO: 5) as the fluorescent ligand.
# A Ki value designated “A” denotes a Ki of ≤50 nM; a Ki value designated “B” denotes a K, of >50 nM and ≤100 nM; a Ki value designated “C” denotes a Ki of >100 nM and ≤1,000 nM; and a Ki value designated “D” denotes a Ki of >1,000 nM.
# MT1-MMP = MT1-MMP (Homo sapiens, UniProt P50281); settings: bicyclic peptide formed with TBMB scaffold; MT1-MMP binder; cited from earlier work
# CAIX [2] = molecular target: T1, CAIX; settings: bicyclic peptide formed with TBMB scaffold; CAIX binder; cited from earlier work
Compound,Ki (CAIX [1]),further results
CC(C)[C@@H]1NC(=O)[C@H](Cc2c[nH]c3ccccc23)NC(=O)[C@@H]2CSCC(=O)N3CC45CN(C[C@@]4(CN(C5)C(=O)CSC[C@H](NC(=O)[C@H](C)NC(=O)CN(C)C(=O)CN(C)C(=O)CN(C)C(=O)CN(C)C(=O)CN(C)C(=O)CN(C)C(=O)CN(C)C(=O)CN(C)C(=O)CN(C)C(=O)CN(C)C(=O)CCN)C(=O)N[C@@H]([C@@H](C)O)C(=O)N[C@@H](CCC(=O)O)C(=O)N2)C3)C(=O)CSC[C@@H](C(N)=O)NC(=O)[C@@H]2CCCN2C(=O)[C@H](C(C)C)NC(=O)[C@H](Cc2c[nH]c3ccccc23)NC(=O)CNC(=O)[C@H](CC(=O)O)NC1=O [Compound I-23],> 1000 nM,–
CC(C)[C@@H]1NC(=O)[C@H](Cc2c[nH]c3ccccc23)NC(=O)[C@@H]2CSCCC(=O)N3CC45CN(CC4(CN(C5)C(=O)CCSC[C@H](NC(=O)[C@H](C)NC(=O)CN(C)C(=O)CN(C)C(=O)CN(C)C(=O)CN(C)C(=O)CN(C)C(=O)CN(C)C(=O)CN(C)C(=O)CN(C)C(=O)CN(C)C(=O)CN(C)C(=O)CCN)C(=O)N[C@@H]([C@@H](C)O)C(=O)N[C@@H](CCC(=O)O)C(=O)N2)C3)C(=O)CCSC[C@@H](C(=O)O)NC(=O)[C@@H]2CCCN2C(=O)[C@H](C(C)C)NC(=O)[C@H](Cc2c[nH]c3ccccc23)NC(=O)CNC(=O)[C@H](CC(=O)O)NC1=O [Compound I-24],> 1000 nM,–
CC(C)[C@@H]1NC(=O)[C@H](Cc2c[nH]c3ccccc23)NC(=O)[C@@H]2CSCC(=O)N3CCOCCN(CCOCCN(CCOCC3)C(=O)CSC[C@H](NC(=O)[C@H](C)NC(=O)CN(C)C(=O)CN(C)C(=O)CN(C)C(=O)CN(C)C(=O)CN(C)C(=O)CN(C)C(=O)CN(C)C(=O)CN(C)C(=O)CN(C)C(=O)CN(C)C(=O)CCN)C(=O)N[C@@H]([C@@H](C)O)C(=O)N[C@@H](CCC(=O)O)C(=O)N2)C(=O)CSC[C@@H](C(=O)O)NC(=O)[C@@H]2CCCN2C(=O)[C@H](C(C)C)NC(=O)[C@H](Cc2c[nH]c3ccccc23)NC(=O)CNC(=O)[C@H](CC(=O)O)NC1=O [Compound I-26],100 to 1000 nM,–
CC(C)[C@@H]1NC(=O)[C@H](Cc2c[nH]c3ccccc23)NC(=O)[C@@H]2CSCCS(=O)(=O)N3CCN(CCN(CC3)S(=O)(=O)CCSC[C@H](NC(=O)[C@H](C)NC(=O)CN(C)C(=O)CN(C)C(=O)CN(C)C(=O)CN(C)C(=O)CN(C)C(=O)CN(C)C(=O)CN(C)C(=O)CN(C)C(=O)CN(C)C(=O)CN(C)C(=O)CCN)C(=O)N[C@@H]([C@@H](C)O)C(=O)N[C@@H](CCC(=O)O)C(=O)N2)S(=O)(=O)CCSC[C@@H](C(=O)O)NC(=O)[C@@H]2CCCN2C(=O)[C@H](C(C)C)NC(=O)[C@H](Cc2c[nH]c3ccccc23)NC(=O)CNC(=O)[C@H](CC(=O)O)NC1=O [Compound I-62],100 to 1000 nM,–
CC(C)[C@@H]1NC(=O)[C@H](Cc2c[nH]c3ccccc23)NC(=O)[C@@H]2CSCC(=O)NCCN(CCNC(=O)CSC[C@@H](C(N)=O)NC(=O)[C@@H]3CCCN3C(=O)[C@H](C(C)C)NC(=O)[C@H](Cc3c[nH]c4ccccc34)NC(=O)CNC(=O)[C@H](CC(=O)O)NC1=O)CCNC(=O)CSC[C@H](NC(=O)[C@H](C)NC(=O)CN(C)C(=O)CN(C)C(=O)CN(C)C(=O)CN(C)C(=O)CN(C)C(=O)CN(C)C(=O)CN(C)C(=O)CN(C)C(=O)CN(C)C(=O)CN(C)C(=O)CCN)C(=O)N[C@@H]([C@@H](C)O)C(=O)N[C@@H](CCC(=O)O)C(=O)N2 [Compound I-63],≤ 50 nM,–
βAla-Sar10-A-C(D-Ala)NE(1Nal)(D-Ala)CEDFYD(tBuGLy)C ([βAla][Sar][Sar][Sar][Sar][Sar][Sar][Sar][Sar][Sar][Sar]AC[dA]NE[1Nal][dA]CEDFYD[Tle]C; cysteine pairing not given here) [17-69-07-N241],–,Kd (MT1-MMP): 1.2 nM
βAla-Sar10-A-CTECWVDGWVPC [Compound 2],–,Kd (CAIX [2]): 10 nM
